Among the data in PubChem BioAssay (NCI) are TGI values, retold here.

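Grown in 96-well plates, cells were treated for 48 hours with each compound at five concentrations. Insufficient inhibition: endpoint recorded as highest concentration tested. TGI: total growth inhibition.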 Where only a bound is given, the exact number is not on record here.

Among the test systems are OVCAR-3 ovarian; K-562 leukemia; MCF7 breast; UACC-257 melanoma; A549 NSCLC; SK-OV-3 ovarian; 786-0 renal; BT-549 breast; SR leukemia; UO-31 renal; OVCAR-4 ovarian; NCI-H23 lung; NCI-H226 lung; A498 renal; HL-60(TB) leukemia.
Assay in all cases: DTP human tumour cell line panel, 48 h

In the case of `COc1c(=O)cc2cc[nH]c3ccn(C)c1c23`, the TGI in the assay with OVCAR-3 ovarian, with K-562 leukemia, in the assay on MCF7 breast, in the assay with UACC-257 melanoma, in the assay on A549 NSCLC and in the assay with SK-OV-3 ovarian was over 100 µM each time. The TGI in the assay on 786-0 renal, in the assay on BT-549 breast, with SR leukemia, with UO-31 renal, in the assay with OVCAR-4 ovarian and with NCI-H23 lung was over 100 µM in each case. The TGI in the assay with NCI-H226 lung and with A498 renal was over 100 µM each time.
`COC(=O)[C@]1(NC(=O)c2ccccc2)C[C@H]1C=O`: the TGI in the assay on OVCAR-3 ovarian, with K-562 leukemia, with MCF7 breast, in the assay with UACC-257 melanoma, in the assay on A549 NSCLC and with SK-OV-3 ovarian was over 100 µM throughout. The TGI was over 100 µM in the assay on 786-0 renal; over 100 µM in the assay on BT-549 breast; 53.9 µM in the assay with SR leukemia; over 100 µM in the assay on UO-31 renal; over 100 µM in the assay on OVCAR-4 ovarian; over 100 µM with NCI-H23 lung. Besides, the TGI in the assay on NCI-H226 lung and in the assay on A498 renal was over 100 µM throughout.
With `NNC(=O)c1c(-c2cccnc2)cnc2ccccc12`, the TGI with OVCAR-3 ovarian, in the assay on K-562 leukemia, in the assay with MCF7 breast, with UACC-257 melanoma, in the assay with A549 NSCLC and with SK-OV-3 ovarian was over 100 µM in each case. For the same compound, the TGI in the assay on 786-0 renal, in the assay on BT-549 breast, with SR leukemia, in the assay with UO-31 renal, in the assay with OVCAR-4 ovarian and in the assay with NCI-H23 lung was over 100 µM throughout. Further, the TGI in the assay with NCI-H226 lung and with HL-60(TB) leukemia was over 100 µM in each case.
As to `CCOC(=O)C1(F)S(=O)(=O)OCCOS1(=O)=O`, the TGI in the assay on OVCAR-3 ovarian, in the assay with MCF7 breast, with UACC-257 melanoma, with A549 NSCLC, in the assay with SK-OV-3 ovarian and with 786-0 renal was over 100 µM throughout. Besides, the TGI in the assay with BT-549 breast, with SR leukemia, in the assay on UO-31 renal, in the assay with OVCAR-4 ovarian, with NCI-H23 lung and in the assay with NCI-H226 lung was over 100 µM throughout.
Turning to `CC1(C)CC[C@]2(C)CC[C@]3(C)C(=CC[C@@H]4[C@@]5(C)CCC(=O)C(C)(C)[C@@H]5[C@H](O)C[C@]43C)[C@@H]2C1`, the TGI in the assay on OVCAR-3 ovarian worked out at 31 µM; in the assay on MCF7 breast, 35.1 µM; in the assay on UACC-257 melanoma it was 32.3 µM; in the assay on A549 NSCLC, 54.3 µM; in the assay on SK-OV-3 ovarian it was 31.7 µM; in the assay on 786-0 renal, 30.9 µM. The concentration for total growth inhibition (TGI) is 35.4 µM in the assay with BT-549 breast; 34.7 µM in the assay with OVCAR-4 ovarian; 35.3 µM in the assay with NCI-H23 lung; 31 µM in the assay on A498 renal; over 100 µM in the assay with HL-60(TB) leukemia.
With `Cc1nc2ccc(C(F)(F)F)cc2nc1NCc1ccc(Cl)c(Cl)c1`, the TGI stood at 26.3 µM in the assay with OVCAR-3 ovarian; 42.2 µM in the assay with K-562 leukemia; 22.6 µM in the assay on MCF7 breast; 30.1 µM in the assay with UACC-257 melanoma; 30.6 µM in the assay with A549 NSCLC; 30.3 µM with 786-0 renal. In addition, the TGI worked out at 39.7 µM in the assay with BT-549 breast; 32.7 µM in the assay on SR leukemia; 29.9 µM in the assay on UO-31 renal; 30.9 µM with NCI-H23 lung; 37.9 µM in the assay with NCI-H226 lung; 34.7 µM in the assay on HL-60(TB) leukemia.
In the case of `CCOC(=O)CNC(=O)C(CSC(=O)N(O)c1ccc(Cl)cc1)NC(=O)CCC(N)C(=O)OCC` (centres undefined), the TGI in the assay on OVCAR-3 ovarian, in the assay on K-562 leukemia, in the assay with MCF7 breast, in the assay with UACC-257 melanoma, in the assay with A549 NSCLC and with SK-OV-3 ovarian was over 50 µM each time. For the same compound, the TGI in the assay with 786-0 renal, in the assay on BT-549 breast, in the assay with SR leukemia, in the assay on UO-31 renal, with NCI-H23 lung and in the assay on NCI-H226 lung was over 50 µM each time.
For `CC1(C)CNCC(C)(OCc2ccccc2)C(=O)NC(C)(C)CNCC(C)(OCc2ccccc2)C(=O)N1` (centres undefined), the TGI with OVCAR-3 ovarian, with K-562 leukemia, in the assay with MCF7 breast, in the assay on UACC-257 melanoma, in the assay with A549 NSCLC and with SK-OV-3 ovarian was over 10 µM each time. In addition, the TGI in the assay on 786-0 renal, with BT-549 breast, in the assay on UO-31 renal, in the assay with NCI-H23 lung, in the assay with NCI-H226 lung and with A498 renal was over 10 µM throughout.
As for `CCCCCCCC1(N=[N+]=[N-])C(=O)Nc2ccccc2C1=O` (centres undefined), the TGI in the assay on OVCAR-3 ovarian came to 29.6 µM; in the assay on K-562 leukemia it was 61.3 µM; in the assay on MCF7 breast it was 34.6 µM; with UACC-257 melanoma it was 41.2 µM; in the assay with A549 NSCLC, 28 µM; in the assay on SK-OV-3 ovarian it was 30.4 µM. Also, the TGI came to 32 µM in the assay with 786-0 renal; 30.4 µM with BT-549 breast; 90 µM with SR leukemia; 25.3 µM in the assay with UO-31 renal; 29.8 µM in the assay with OVCAR-4 ovarian; 40.5 µM in the assay on NCI-H23 lung. Further, the TGI in the assay with A498 renal turned out to be 14 µM.
On to `O=C1Cc2c([nH]c3ccc(Br)cc23)-c2cc(O)c(O)cc2N1`, for which the TGI in the assay on OVCAR-3 ovarian, in the assay with K-562 leukemia, in the assay with MCF7 breast, with UACC-257 melanoma, in the assay on A549 NSCLC and in the assay on SK-OV-3 ovarian was over 100 µM in each case. Further, the total growth inhibition concentration (TGI) in the assay on 786-0 renal, with BT-549 breast, with UO-31 renal, with OVCAR-4 ovarian, in the assay with NCI-H23 lung and in the assay with NCI-H226 lung was over 100 µM in each case. In the assay with A498 renal, this compound yielded a TGI of over 100 µM.
With `COC(=O)c1ccc(S)c(S(=O)(=O)Nc2n[nH]c(N)n2)c1`, the TGI in the assay with OVCAR-3 ovarian, with K-562 leukemia, in the assay on UACC-257 melanoma, with A549 NSCLC, in the assay on 786-0 renal and in the assay on BT-549 breast was over 100 µM in each case. Moreover, the TGI with SR leukemia, in the assay with UO-31 renal, in the assay on OVCAR-4 ovarian, in the assay with NCI-H23 lung, in the assay on A498 renal and in the assay on HL-60(TB) leukemia was over 100 µM in each case.

Usually TGI stands for the concentration at which net growth stops. Read a high TGI as lower sensitivity of the cells.
